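These data come from cells grown in 96-well plates and exposed to compound for 48 hours at five concentrations. TGI is the concentration that stops growth completely.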
How the values were obtained:
Test in all cases: NCI anticancer screen, dose series, 48 h
[1] = test system: A549 NSCLC
[2] = test system: HOP-92 NSCLC
[3] = test system: 786-0 renal
[4] = test system: UACC-62 melanoma
[5] = test system: SF-268 CNS
[6] = test system: SK-MEL-5 melanoma
[7] = test system: IGROV1 ovarian
[8] = test system: CAKI-1 renal
[9] = test system: LXFL 529 NSCLC
[10] = test system: RPMI-8226 leukemia
[11] = test system: SF-539 CNS
[12] = test system: LOX IMVI melanoma
[13] = test system: NCI-H460 lung
[14] = test system: HCC-2998 colon
[15] = test system: DMS 114 small cell lung
[16] = test system: M19-MEL melanoma
[17] = test system: NCI-H226 lung
[18] = test system: SK-MEL-2 melanoma
[19] = test system: HCT-116 colon
[20] = test system: NCI-H522 lung
[21] = test system: SNB-19 CNS
[22] = test system: CCRF-CEM leukemia
[23] = test system: OVCAR-3 ovarian
[24] = test system: SF-295 CNS
[25] = test system: HL-60(TB) leukemia
[26] = test system: HOP-62 NSCLC
[27] = test system: KM20L2 colon
[28] = test system: ACHN renal
[29] = test system: SK-OV-3 ovarian
[30] = test system: OVCAR-5 ovarian
[31] = test system: UO-31 renal
[32] = test system: TK-10 renal
[33] = test system: COLO 205 colon
[34] = test system: MOLT-4 leukemia
[35] = test system: KM12 colon
[36] = test system: DMS 273 small cell lung
[37] = test system: A498 renal
[38] = test system: SW-620 colon
[39] = test system: MALME-3M melanoma
[40] = test system: HCT-15 colon
[41] = test system: SK-MEL-28 melanoma
[42] = test system: NCI-H23 lung
[43] = test system: SN12C renal
[44] = test system: EKVX NSCLC
[45] = test system: M14 melanoma
[46] = test system: SNB-78 CNS
[47] = test system: SR leukemia
[48] = test system: DLD-1 colon
[49] = test system: OVCAR-8 ovarian
[50] = test system: K-562 leukemia
[51] = test system: UACC-257 melanoma
[52] = test system: HT29 colon
[53] = test system: OVCAR-4 ovarian
[54] = test system: SNB-75 CNS
[55] = test system: RXF 393 renal
[56] = test system: U251 CNS
[57] = test system: MDA-N
[58] = test system: PC-3 prostate
[59] = test system: T-47D breast
[60] = test system: MCF7 breast
[61] = test system: HS 578T breast
[62] = test system: MDA-MB-231 breast
[63] = test system: DU-145 prostate
[64] = test system: MDA-MB-435
[65] = test system: NCI/ADR-RES ovarian

Compound: O=C(c1nc2ccc(Cl)cc2[nH]c1=O)C(O)c1ccccc1 (stereo unspecified)
- TGI [1]: > 100 µM
- TGI [2]: > 100 µM
- TGI [3]: > 100 µM
- TGI [4]: > 100 µM
- TGI [5]: > 100 µM
- TGI [6]: > 100 µM
- TGI [7]: > 100 µM
- TGI [8]: > 100 µM
- TGI [9]: > 100 µM
- TGI [10]: > 100 µM
- TGI [11]: > 100 µM
- TGI [12]: > 100 µM
- TGI [13]: > 100 µM
- TGI [14]: > 100 µM
- TGI [15]: > 100 µM
- TGI [16]: > 100 µM
- TGI [17]: > 100 µM
- TGI [18]: > 100 µM
- TGI [19]: > 100 µM
- TGI [20]: > 100 µM
- TGI [21]: > 100 µM
- TGI [22]: 25.4 µM
- TGI [23]: > 100 µM
- TGI [24]: > 100 µM
- TGI [25]: 68.8 µM
- TGI [26]: > 100 µM
- TGI [27]: > 100 µM
- TGI [28]: > 100 µM
- TGI [29]: > 100 µM
- TGI [30]: > 100 µM
- TGI [31]: > 100 µM
- TGI [32]: > 100 µM
- TGI [33]: > 100 µM
- TGI [34]: > 100 µM
- TGI [35]: > 100 µM
- TGI [36]: > 100 µM
- TGI [37]: > 100 µM
- TGI [38]: > 100 µM
- TGI [39]: > 100 µM
- TGI [40]: > 100 µM
- TGI [41]: > 100 µM
- TGI [42]: > 100 µM
- TGI [43]: > 100 µM
- TGI [44]: > 100 µM
- TGI [45]: > 100 µM
- TGI [46]: > 100 µM
- TGI [47]: > 100 µM
- TGI [48]: > 100 µM
- TGI [49]: > 100 µM
- TGI [50]: > 100 µM
- TGI [51]: > 100 µM
- TGI [52]: > 100 µM
- TGI [53]: > 100 µM

Compound: N#Cc1ccccc1NC(=O)/C(=N\Nc1ccc([N+](=O)[O-])cc1)C1C(=O)NC(=O)NC1=O
- TGI [1]: > 100 µM
- TGI [2]: 74.8 µM
- TGI [3]: > 100 µM
- TGI [4]: > 100 µM
- TGI [5]: > 100 µM
- TGI [6]: > 100 µM
- TGI [7]: > 100 µM
- TGI [8]: > 100 µM
- TGI [9]: > 100 µM
- TGI [10]: > 100 µM
- TGI [11]: > 100 µM
- TGI [12]: > 100 µM
- TGI [13]: > 100 µM
- TGI [14]: > 100 µM
- TGI [15]: > 100 µM
- TGI [16]: > 100 µM
- TGI [18]: > 100 µM
- TGI [19]: > 100 µM
- TGI [20]: > 100 µM
- TGI [21]: > 100 µM
- TGI [22]: > 100 µM
- TGI [23]: > 100 µM
- TGI [25]: > 100 µM
- TGI [26]: > 100 µM
- TGI [27]: > 100 µM
- TGI [28]: > 100 µM
- TGI [29]: > 100 µM
- TGI [30]: > 100 µM
- TGI [31]: > 100 µM
- TGI [32]: > 100 µM
- TGI [33]: > 100 µM
- TGI [34]: > 100 µM
- TGI [35]: > 100 µM
- TGI [37]: > 100 µM
- TGI [38]: > 100 µM
- TGI [39]: > 100 µM
- TGI [40]: > 100 µM
- TGI [54]: > 100 µM
- TGI [41]: > 100 µM
- TGI [42]: > 100 µM
- TGI [55]: > 100 µM
- TGI [44]: > 100 µM
- TGI [45]: > 100 µM
- TGI [46]: > 100 µM
- TGI [48]: > 100 µM
- TGI [49]: > 100 µM
- TGI [50]: > 100 µM
- TGI [51]: > 100 µM
- TGI [56]: > 100 µM
- TGI [53]: > 100 µM

Compound: COC1=C(OC)C(O)(c2ccccc2)C1=O (stereo unspecified)
- TGI [1]: > 100 µM
- TGI [2]: > 100 µM
- TGI [5]: > 100 µM
- TGI [7]: > 100 µM
- TGI [13]: > 100 µM
- TGI [16]: > 100 µM
- TGI [20]: > 100 µM
- TGI [21]: > 100 µM
- TGI [22]: > 100 µM
- TGI [24]: > 100 µM
- TGI [25]: > 100 µM
- TGI [26]: > 100 µM
- TGI [28]: > 100 µM
- TGI [29]: > 100 µM
- TGI [30]: > 100 µM
- TGI [31]: > 100 µM
- TGI [32]: 85.7 µM
- TGI [34]: > 100 µM
- TGI [35]: > 100 µM
- TGI [36]: > 100 µM
- TGI [37]: > 100 µM
- TGI [41]: > 100 µM
- TGI [42]: > 100 µM
- TGI [55]: > 100 µM
- TGI [44]: > 100 µM
- TGI [45]: > 100 µM
- TGI [46]: > 100 µM
- TGI [47]: > 100 µM
- TGI [49]: > 100 µM
- TGI [51]: > 100 µM
- TGI [52]: > 100 µM
- TGI [56]: > 100 µM

Compound: CC1CCC(=O)NCCCCC(=O)N1 (stereo unspecified)
- TGI [1]: > 100 µM
- TGI [2]: > 100 µM
- TGI [3]: > 100 µM
- TGI [4]: > 100 µM
- TGI [5]: > 100 µM
- TGI [6]: > 100 µM
- TGI [7]: > 100 µM
- TGI [8]: > 100 µM
- TGI [9]: > 100 µM
- TGI [10]: > 100 µM
- TGI [11]: > 100 µM
- TGI [12]: > 100 µM
- TGI [13]: > 100 µM
- TGI [14]: > 100 µM
- TGI [15]: > 100 µM
- TGI [16]: > 100 µM
- TGI [17]: > 100 µM
- TGI [18]: > 100 µM
- TGI [19]: > 100 µM
- TGI [20]: > 100 µM
- TGI [21]: > 100 µM
- TGI [22]: > 100 µM
- TGI [23]: > 100 µM
- TGI [24]: > 100 µM
- TGI [25]: > 100 µM
- TGI [26]: > 100 µM
- TGI [27]: > 100 µM
- TGI [28]: > 100 µM
- TGI [29]: > 100 µM
- TGI [30]: > 100 µM
- TGI [31]: > 100 µM
- TGI [32]: > 100 µM
- TGI [33]: > 100 µM
- TGI [34]: > 100 µM
- TGI [35]: > 100 µM
- TGI [36]: > 100 µM
- TGI [37]: > 100 µM
- TGI [38]: > 100 µM
- TGI [39]: > 100 µM
- TGI [54]: > 100 µM
- TGI [41]: > 100 µM
- TGI [42]: > 100 µM
- TGI [43]: > 100 µM
- TGI [55]: > 100 µM
- TGI [44]: > 100 µM
- TGI [45]: > 100 µM
- TGI [46]: > 100 µM
- TGI [47]: > 100 µM
- TGI [48]: > 100 µM
- TGI [49]: > 100 µM
- TGI [50]: > 100 µM
- TGI [51]: > 100 µM
- TGI [52]: > 100 µM
- TGI [56]: > 100 µM
- TGI [53]: > 100 µM

Compound: CCCN=Cc1c(O)c(O)c(C(C)C)c2cc(C)c(-c3c(C)cc4c(C(C)C)c(O)c(O)c(C=NCCC)c4c3O)c(O)c12
- TGI [1]: > 100 µM
- TGI [57]: > 100 µM
- TGI [58]: 62.2 µM
- TGI [59]: > 100 µM
- TGI [2]: 8.51 µM
- TGI [3]: 39.3 µM
- TGI [60]: 71.1 µM
- TGI [5]: > 100 µM
- TGI [61]: > 100 µM
- TGI [6]: 49.1 µM
- TGI [7]: > 100 µM
- TGI [8]: > 100 µM
- TGI [62]: > 100 µM
- TGI [9]: 14.7 µM
- TGI [10]: > 100 µM
- TGI [11]: > 28.8 µM
- TGI [12]: 24.5 µM
- TGI [63]: > 100 µM
- TGI [13]: > 61.1 µM
- TGI [14]: 44.3 µM
- TGI [15]: 4.54 µM
- TGI [16]: 20.1 µM
- TGI [17]: 47.8 µM
- TGI [18]: 7.44 µM
- TGI [19]: 14.3 µM
- TGI [20]: 5.73 µM
- TGI [21]: > 100 µM
- TGI [64]: > 100 µM
- TGI [22]: 13.4 µM
- TGI [23]: > 24.4 µM
- TGI [24]: > 24.7 µM
- TGI [25]: > 23.6 µM
- TGI [26]: > 77.4 µM
- TGI [27]: > 100 µM
- TGI [28]: > 30.7 µM
- TGI [29]: > 30.8 µM
- TGI [30]: > 50.3 µM
- TGI [31]: 22.6 µM
- TGI [32]: > 100 µM
- TGI [33]: > 32.3 µM
- TGI [34]: > 70.1 µM
- TGI [35]: > 32.6 µM
- TGI [37]: 65.3 µM
- TGI [38]: > 100 µM
- TGI [40]: 48.1 µM
- TGI [54]: > 100 µM
- TGI [41]: > 78.3 µM
- TGI [65]: > 100 µM
- TGI [42]: > 81.9 µM
- TGI [43]: 93.6 µM
- TGI [55]: 16.5 µM
- TGI [44]: > 100 µM
- TGI [45]: > 21 µM
- TGI [46]: 13.4 µM
- TGI [47]: > 100 µM
- TGI [49]: > 100 µM
- TGI [50]: > 82.7 µM
- TGI [51]: > 40.1 µM
- TGI [52]: > 24.9 µM
- TGI [56]: 44.8 µM
- TGI [53]: > 100 µM
